Test results reported in patent US20200390102A1, “SYNERGISTIC ANTIMICROBIAL COMPOSITION” (DDP SPECIALTY ELECTRONIC MATERIALS US, INC., priority 2017, published 2020).

What was measured:
[1] = test system: Thermus thermophilus (DSM: 579); experiment: Synergy in the planktonic phase, 48 h biocide challenge at 60° C. with dilution-series regrowth readout; type: cell-based
Method: Experiments using Thermus thermophdus (DSM: 579) as a test organism were also performed. In these experiments, the total concentration of biocides was 300 ppm for the combined total actives, the temperature at which the experiments were performed was 60° C., the media to grow Thermus thermophdus was DSMZ DSM 74-Media at pH 8.0. (Yeast extract (BD Difco) 4.0 g, Proteose peptone Nr. 3 (BD Difco) 8.0 g, NaCl 2.0 g, distilled water added to 1 L). The challenging with biocides against Thermus thermophilus was done in a standard ocean matrix with a similar salinity of 2% (similar to the media where they are cultured in). Once again, each experiment was done in triplicate.
The inoculated assay block was challenged at 60° C. for 48 hours. The inoculum prepared added between to 1*10^8 to 1*10^9 total cells/mL (determined by MPN analysis). After 48 hours of challenge with biocide, 20 μL aliquots of each treatment (well) were added to one of several 96 well plates with DSM 74-media. These 96 well plates were filled with ‘recovery’ media (DSM 74-Media). One of these plates was prepared for each column of the assay block. 180 μL recovery media was added to each well of a 96 well plate, except for column 1 of the recovery plate. This column was filled with 180 μL of one column of the assay block. The last three columns on the recovery plate were not pipetted. These columns represented the no template control for verifying proper plate set up and data reliability. The assay block sample was then diluted in steps of 10 fold by transferring 20 μL from e.g. columns 1 to column 2 and from column 2 to column 3 (until column 9) by applying a multichannel pipet in each recovery plate. […]
The recovery plates were allowed to regrow for 4-6 days and subsequently read (checked for microbial growth). This was done in duplicate for each point (the duplicate is already present in the biocide block viz. each point is truly determined in duplicate). […] Turbidity was checked in log scale reading the recovery plates. Turbidity was recorded via presence/absence and gave the log kill range (from the made dilution series). […]

[2] = test system: Pseudomonas aeruginosa (ATCC […]) and Escherichia coli (ATCC 10145) combined inoculum; experiment: Synergy in the planktonic phase, 48 h biocide challenge with regrowth (turbidity) readout; type: cell-based; details: P. aeruginosa/E. coli, 48 h challenge at 30° C., phosphate buffer pH 7.3
Method: Pseudomonas aeruginosa (ATCC […]) and Escherichia coli (ATCC 10145) cultures were separately prepared from glycerol stocks. First they were streak plated and validated with a microscope. Single colonies were picked and used to inoculate 200 mL shake flasks that were grown statically overnight at 30° C. (30 grams/L Tryptic Soy Broth) to produce the initial inoculum. A deep-well 96 well challenge plate (2 mL maximum well volume) was prepared using 900 μL/well phosphate buffer at pH 7.3, (0.0027M potassium chloride, 0.137 M sodium chloride). Inoculation took place at the start of the experiments (with a 100 μL combined inoculum, adding to the 900 μL buffer to total 1 mL/well). The inoculum added between 1*10^8 and 1*10^9 total cells/mL based on OD600 measurement. […]
The inoculated assay block was challenged at 30° C. for 48 hours. […] This was done in triplicate for each point (the triplicate is already present in the biocide block viz. each point is truly determined in triplicate). […]
The recovery plates were subsequently read (checked for microbial growth) at 72 hours after addition of the culture, to recovery media. Ranking of biocidal efficacy was done by recording the development of turbidity within each well (determined by visual inspection). […] Ranking was done per average value of three data points determined per experiment. (Recorded in log regrowth). […]

Compound	Glyoxal stand alone 48 h pass ([1]; T. thermophilus, glyoxal alone, 48 h challenge at 60° C., ocean matrix 2% salinity) [ppm]	Sensitivity of Thermus thermophilus to Glyoxal ([1]; vs. Pseudomonas aeruginosa and E. coli)	Glyoxal stand alone 48 h pass ([2]; glyoxal alone) [ppm]	THPS stand alone 48 h pass ([1]; T. thermophilus, THPS alone, 48 h challenge at 60° C., ocean matrix 2% salinity) [ppm]	THPS stand alone 48 h pass ([2]; THPS alone) [ppm]
O=CC=O [Glyoxal, glyoxal]	59	*Thermus thermophilus is more sensitive to Glyoxal vs. Pseudomonas aeruginosa and E. coli.	875		
tetrakis(hydroxymethyl)phosphonium sulfate [THPS]				300	130
